Test results reported in paper PMC6268433, “New Sorafenib Derivatives: Synthesis, Antiproliferative Activity Against Tumour Cell Lines and Antimetabolic Evaluation” (Molecules, 2012).

Columns and labels:
[1] = system: MCF-7 (breast carcinoma); test: Cytostatic activity, MTT assay; assay type: cell-based, human; conditions: Homo sapiens, MCF7, 72 h, read-out: Tumour cell growth/IC50 MCF-7
Protocol: (§1) The experiments were carried out on six human tumour and one murine cell lines, which are derived from five solid tumour types and two (one murine and one human) suspension tumour cell lines. The following cell lines were used: HCT 116 (colon carcinoma), SW 620 (colon carcinoma), MCF-7 (breast carcinoma), H 460 (lung carcinoma), L1210 (murine leukemia), CEM (human lymphoma) and HeLa (cervix carcinoma). […] Compounds 3d and 3e with a benzene ring in the amide moiety, exerted a somewhat stronger (but still rather poor) cytostatic effect (IC50 ≈ 20-90 µM). […] The compounds were also equally cytostatic against primary human embryonic lung (HEL) fibroblast cells (Table 2). The obtained data clearly point to the obligatory presence of the [4-chloro-3-(trifluoromethyl)phenyl]carbamoyl group being crucial for high potency. Also, the 4a–e series of compounds are far more lipophilic than the 2 and 3 series of compounds, which may be related to their increased cytostatic potential.
(§2) HCT 116, SW 620, MCF-7, and H 460 cells were cultured as monolayers and maintained in Dulbecco’s modified Eagle medium (DMEM), supplemented with 10% fetal bovine serum (FBS), 2 mmol·L^–1 L-glutamine, 100 U·mL^–1 penicillin and 100 μg·mL^–1 streptomycin in a humidified atmosphere with 5% CO2 at 37 °C. The growth inhibition activity was assessed as described previously, according to the slightly modified procedure of the National Cancer Institute, Developmental Therapeutics Program. Briefly, the cells were seeded onto standard 96-well microtiter plates on day 0. The cell concentrations were adjusted according to the cell population doubling time (PDT): 3000 cells/well for HCT116 and SW 620 cell lines (PDT = 20–24 h) and 4,000 cells/well for MCF-7 cell lines (PDT = 33 h). Tested agents were then added in five consecutive 10-fold dilutions (10^–8 to 10^–4 mol·L^–1) and incubated for further 72 h. Working dilutions were freshly prepared on the day of testing. The solvent (DMSO) was also tested for eventual inhibitory activity by adjusting its concentration to be the same as in working concentrations (maximal concentration of DMSO was 0.25%). After 72 h of incubation, the cell growth rate was evaluated by performing the MTT assay (Promega) which detects dehydrogenase activity in viable cells. The absorbency (OD, optical density) was measured on a microplate reader at 570 nm. Each test point was performed in quadruplicate in at least three individual experiments. The results are expressed as IC50, which is the concentration necessary for 50% of inhibition. […] Each result is a mean value from three separate experiments.

[2] = system: SW 620 (colon carcinoma); test: Cytostatic activity, MTT assay; assay type: cell-based, human; conditions: Homo sapiens, SW-620, 72 h, read-out: Tumour cell growth/IC50 SW 620
Protocol: as §1, §2

[3] = system: HCT 116 (colon carcinoma); test: Cytostatic activity, MTT assay; assay type: cell-based, human; conditions: Homo sapiens, HCT-116, 72 h, read-out: Tumour cell growth/IC50 HCT 116
Protocol: as §1, §2

[4] = system: H 460 (lung carcinoma); test: Cytostatic activity, MTT assay; assay type: cell-based, human; conditions: Homo sapiens, NCI-H460, 72 h, read-out: Tumour cell growth/IC50 H 460
Protocol: as §1, §2

[5] = system: L1210 (murine leukemia); test: Cytostatic activity, Coulter counter; assay type: cell-based; conditions: Mus musculus, L1210; 48 h, cell number by Coulter counter; read-out: Tumour cell growth/IC50 L1210
Protocol: as §1
(§3) The cytostatic activity of the tested compounds against murine leukemia L1210, human cervix carcinoma HeLa, human embrionic lung (HEL) and T-lymphocyte CEM cells was determined with cells grown in suspension (L1210, CEM) or monolayers (HeLa, HEL) in 200 µL-wells of 96-well microtiter plates (initial cell number: 5–7.5 × 10^4 cells/well). After 48 (L1210) or 72 (CEM, HeLa, HEL) h, the tumour cell number was determined by the use of a Coulter counter.

[6] = system: primary human embryonic lung (HEL) fibroblast cells; test: Cytostatic activity, Coulter counter; assay type: cell-based; conditions: Homo sapiens, Fibroblast; 72 h, cell number by Coulter counter; primary fibroblasts
Protocol: as §1, §3

[7] = system: CEM (human lymphoma); test: Cytostatic activity, Coulter counter; assay type: cell-based; conditions: Homo sapiens; 72 h, cell number by Coulter counter; read-out: Tumour cell growth/IC50 CEM
Protocol: as §1, §3

[8] = system: HeLa (cervix carcinoma); test: Cytostatic activity, Coulter counter; assay type: cell-based, human; conditions: Homo sapiens, HeLa; 72 h, cell number by Coulter counter; read-out: Tumour cell growth/IC50 HeLa
Protocol: as §1, §3

[9] = system: DNA synthesis in CEM cells; test: Antimetabolic activity: [CH3-3H]dThd incorporation (DNA synthesis) in CEM cell cultures; assay type: cell-based; conditions: Homo sapiens, CCRF-CEM, ~20 h, TCA-insoluble material
Description: (§4) A variety of compounds (2a, 3a, 4a with a cycloalkyl substituent directly attached to nitrogen atom, 2c, 3c, 4c with a cycloalkyl bound to nitrogen through a short spacer and 2e, 3e, 4e with an aromatic substituent) have been investigated on their inhibitory activity against DNA, RNA and protein synthesis in CEM cell cultures. The compounds were equally inhibitory to dThd (DNA synthesis), Urd (RNA synthesis) and Leu (protein synthesis) incorporation into TCA-insoluble cell material. The 2 series of compounds were least inhibitory whereas the 4 series were most inhibitory (IC50 in the lower micromolar range). Their antimetabolic IC50 values closely corresponded to their antiproliferative IC50 values. They also behaved as sorafenib in terms of antimetabolic potential (Table 3).
(§5) The procedures have been modified from previously described methods. Human CEM cells were seeded in 96-well microtiter plates at 10 × 10^4 cells/200 µL-well in the presence of serial dilutions of the tested compounds. Then, 0.25 µCi of [CH3-^3H]dThd (radiospecificity: 52 Ci/mmol) or 1 µCi of [5-^3H]Urd (radiospecificity: 26 Ci/mmol) or [4,5-^3H]Leu (radiospecificity: 160 Ci/mmol) were added and the drug-exposed tumour cell cultures further incubated at 37 °C for ~20 h. Then the content of each well was transfered to glass fiber discs (Wattman, GE Healthcare, Maidstone, UK), mounted on a manifold (Millipore, Billerica, MA, USA) and subsequently washed with PBS (to remove the radiolabel material that has not been incorporated in the cellular macromolecules), 10% and 5% trichoroacetic acid (TCA) (to precipitate DNA, RNA and proteins) and ethanol. Then, the radioactivity (TCA precipitate) associated with each disc was determined in a liquid scintillation counter (Packard, Palo Alto, CA, USA).

[10] = system: protein synthesis in CEM cells; test: Antimetabolic activity: [4,5-3H]Leu incorporation (protein synthesis) in CEM cell cultures; assay type: cell-based; conditions: Homo sapiens, CCRF-CEM, ~20 h, TCA-insoluble material
Description: as §4, §5

[11] = system: RNA synthesis in CEM cells; test: Antimetabolic activity: [5-3H]Urd incorporation (RNA synthesis) in CEM cell cultures; assay type: cell-based; conditions: Homo sapiens, CCRF-CEM, ~20 h, TCA-insoluble material
Description: as §4, §5

| Structure (SMILES) | melting point [°C] | IC50 [1] [µM] | IC50 [2] [µM] | IC50 [3] [µM] | IC50 [4] [µM] | IC50 [5] [µM] | IC50 [6] [µM] | IC50 [7] [µM] | IC50 [8] [µM] | IC50 [9] [µM] | IC50 [10] [µM] | IC50 [11] [µM] |
| --- | --- | --- | --- | --- | --- | --- | --- | --- | --- | --- | --- | --- |
| O=C(NC1CCCCC1)c1cc(Cl)ccn1 [Compound 2b, 4-Chloro-N-cyclohexylpyridine-2-carboxamide] | 116 to 119 | ≥ 100 | > 100 | > 100 | 35 ± 12 | > 100 | > 100 | > 100 | > 100 | – | – | – |
| O=C(NCC1CCCCC1)c1cc(Cl)ccn1 [Compound 2c, 4-Chloro-N-cyclohexylmethylpyridine-2-carboxamide] | 107 to 108 | ≥ 100 | ≥ 100 | ≥ 100 | > 100 | > 100 | > 100 | > 100 | > 100 | > 100 | > 100 | > 100 |
| O=C(NCc1ccccc1)c1cc(Cl)ccn1 [Compound 2d, 4-Chloro-N-benzylpyridine-2-carboxamide] | 70 to 72 | ≥ 100 | 71 ± 28 | ≥ 100 | > 100 | ≥ 100 | > 100 | ≥ 100 | > 100 | – | – | – |
| O=C(NCCc1ccccc1)c1cc(Cl)ccn1 [Compound 2e, 4-Chloro-N-phenylethylpyridine-2-carboxamide] | – | 57 ± 46 | > 100 | ≥ 100 | > 100 | > 100 | > 100 | > 100 | > 100 | > 100 | > 100 | > 100 |
| Nc1ccc(Oc2ccnc(C(=O)NC3CCCCC3)c2)cc1 [Compound 3b, 4-(4-Aminophenoxy)-N-cyclohexylpyridine-2-carboxamide] | 150 to 153 | ≥ 100 | ≥ 100 | 37 ± 1 | 65 ± 33 | 234 ± 4.5 | > 100 | > 100 | > 100 | – | – | – |
| Nc1ccc(Oc2ccnc(C(=O)NCC3CCCCC3)c2)cc1 [Compound 3c, 4-(4-Aminophenoxy)-N-cyclohexylmethylpyridine-2-carboxamide] | 135 to 137 | ≥ 100 | ≥ 100 | ≥ 100 | > 100 | 163 ± 147 | > 100 | > 100 | > 100 | > 100 | 70.6 ± 27.6 | 92.1 ± 43 |
| O=C(Nc1ccc(Oc2ccnc(C(=O)NC3CCCCC3)c2)cc1)Nc1ccc(Cl)c(C(F)(F)F)c1 [Compound 4b, 4-[4-[[4-Chloro-3-(trifluoromethyl)phenyl]carbamoylamino]phenoxy]-N-cyclohexyl-pyridine-2-carboxamide] | – | 2 ± 0.6 | 3 ± 0.2 | 3 ± 0.8 | 2 | 3.2 ± 1.7 | 3.2 ± 0.2 | 3.6 ± 0.9 | 3 ± 0.2 | – | – | – |
| O=C(Nc1ccc(Oc2ccnc(C(=O)NCC3CCCCC3)c2)cc1)Nc1ccc(Cl)c(C(F)(F)F)c1 [Compound 4c, 4-[4-[[4-Chloro-3-(trifluoromethyl)phenyl]carbamoylamino]phenoxy]-N-cyclohexylmethyl-pyridine-2-carboxamide] | 156 to 160 | 2 ± 0.1 | 3 ± 0.4 | 3 ± 1 | 2 ± 0.2 | 1.8 ± 0.3 | 2.9 | 2 ± 0.5 | 2.7 ± 1.8 | 20.1 ± 10.9 | 27.4 ± 12.7 | 12.2 ± 8.4 |
| O=C(Nc1ccc(Oc2ccnc(C(=O)NCc3ccccc3)c2)cc1)Nc1ccc(Cl)c(C(F)(F)F)c1 [Compound 4d, 4-[4-[[4-Chloro-3-(trifluoromethyl)phenyl]carbamoylamino]phenoxy]-N-benzyl-pyridine-2-carbox-amide] | 160 to 163 | 2 ± 0.2 | 2 ± 0.08 | 2 ± 0.8 | 2 ± 0.2 | 2 ± 0.4 | 3.1 ± 0.2 | 4.3 ± 0.4 | 2.6 ± 0.6 | – | – | – |
| O=C(Nc1ccc(Oc2ccnc(C(=O)NCCc3ccccc3)c2)cc1)Nc1ccc(Cl)c(C(F)(F)F)c1 [Compound 4e, 4-[4-[[4-Chloro-3-(trifluoromethyl)phenyl]carbamoylamino]phenoxy]-N-phenylethyl-pyridine-2-carboxamide] | – | 2 ± 0.1 | 2 ± 0.4 | 3 ± 0.7 | 2 ± 0.2 | 2.2 ± 0.2 | 4.6 ± 0.36 | 2.5 ± 0.9 | 1.7 ± 0.2 | 12.7 ± 9 | 11.8 ± 7.7 | 6.6 ± 1.8 |
